pIC50: −log10 of the molar value. Like-named read-outs stand apart in the source and are kept apart here.
Columns and labels:
OCT2 = molecular target: T1, OCT2 (Homo sapiens, UniProt O15244); test: In vitro drug transporter assay, OCT2; format: in vitro ADME
T1 sequence (O15244 1-555): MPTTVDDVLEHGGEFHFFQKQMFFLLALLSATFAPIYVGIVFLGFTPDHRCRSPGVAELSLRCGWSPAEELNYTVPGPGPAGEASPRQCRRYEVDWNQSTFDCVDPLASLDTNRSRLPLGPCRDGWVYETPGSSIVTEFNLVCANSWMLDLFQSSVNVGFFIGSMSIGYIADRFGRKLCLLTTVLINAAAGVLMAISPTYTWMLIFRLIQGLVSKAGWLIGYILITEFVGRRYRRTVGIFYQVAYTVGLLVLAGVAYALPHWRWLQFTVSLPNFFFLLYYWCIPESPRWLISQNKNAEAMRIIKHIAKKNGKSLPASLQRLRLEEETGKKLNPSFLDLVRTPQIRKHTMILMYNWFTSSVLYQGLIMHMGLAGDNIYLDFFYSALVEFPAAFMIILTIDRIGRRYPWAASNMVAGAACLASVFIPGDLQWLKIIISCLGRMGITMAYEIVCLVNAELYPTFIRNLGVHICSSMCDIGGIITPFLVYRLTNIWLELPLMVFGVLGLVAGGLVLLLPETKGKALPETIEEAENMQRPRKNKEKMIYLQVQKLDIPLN

in vitro = in vitro ADME, all species; details: plasma
Excerpt: (§1) The following studies have been conducted: (a) in vitro drug protein binding, transporter (organic anion transporting polypeptide [OATP], P-glycoprotein [P-gp], breast cancer-related protein [BCRP], and multiple drug resistance protein 1 [MDR1]), and cytochrome P-450 enzyme assays to investigate absorption, distribution, and excretion; (b) in vivo MGL-3196 rat and dog oral PK and bioavailability studies; (c) in vivo ^14C-MGL-3196 rat and dog oral pharmacokinetics, absorption, excretion, and tissue distribution by quantitative whole-body autoradiography (QWBA) studies; and (d) liver disposition of MGL-3196 using an in vitro sandwiched hepatocyte model system (B-CLEAR® technology) in dog (SCDH) and human (SCHH) hepatocytes.

[1] = Rat oral PK and bioavailability studies; format: in vivo
Excerpt: as §1
(§2) Rat & Dog PK/Bioavailability Studies were also performed.

[2] = Dog oral PK and bioavailability studies; format: in vivo
Excerpt: as §1, §2

[3] = Dog liver, bile, plasma distribution; format: in vivo; details: for concentration at 4 h: Beagle, po; for concentration at 4 h / Concentration in Bile: 4 hours after single daily 100 mg/kg oral doses for four days
Excerpt: Tables 2A-2B show ^14C-MGL-3196 dog ADME study design.

CYP3A4 = CYP3A4 (Homo sapiens, UniProt P08684); test: In vitro Cytochrome P-450 enzyme assay, CYP3A4; format: in vitro ADME
Chain of CYP3A4 (P08684 2-503 limits assumed): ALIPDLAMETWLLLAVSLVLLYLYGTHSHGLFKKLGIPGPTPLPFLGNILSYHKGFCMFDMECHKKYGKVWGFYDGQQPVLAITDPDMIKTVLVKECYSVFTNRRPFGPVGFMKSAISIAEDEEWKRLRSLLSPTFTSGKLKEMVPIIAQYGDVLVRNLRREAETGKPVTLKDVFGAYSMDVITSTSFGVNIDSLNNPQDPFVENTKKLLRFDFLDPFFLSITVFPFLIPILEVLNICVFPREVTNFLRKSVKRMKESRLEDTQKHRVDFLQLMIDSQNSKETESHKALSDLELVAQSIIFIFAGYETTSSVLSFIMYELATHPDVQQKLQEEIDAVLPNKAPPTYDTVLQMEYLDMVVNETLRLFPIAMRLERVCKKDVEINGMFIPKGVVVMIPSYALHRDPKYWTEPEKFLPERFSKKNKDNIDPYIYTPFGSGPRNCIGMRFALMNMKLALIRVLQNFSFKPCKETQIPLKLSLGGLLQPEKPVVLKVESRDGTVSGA
Excerpt: as §1

MDR1 (P-gp) = MDR1 (P-gp) (Homo sapiens, UniProt P08183); test: In vitro drug transporter assay, MDR1 (P-gp); format: in vitro ADME
Chain of MDR1 (P-gp) (P08183 whole entry, species assumed): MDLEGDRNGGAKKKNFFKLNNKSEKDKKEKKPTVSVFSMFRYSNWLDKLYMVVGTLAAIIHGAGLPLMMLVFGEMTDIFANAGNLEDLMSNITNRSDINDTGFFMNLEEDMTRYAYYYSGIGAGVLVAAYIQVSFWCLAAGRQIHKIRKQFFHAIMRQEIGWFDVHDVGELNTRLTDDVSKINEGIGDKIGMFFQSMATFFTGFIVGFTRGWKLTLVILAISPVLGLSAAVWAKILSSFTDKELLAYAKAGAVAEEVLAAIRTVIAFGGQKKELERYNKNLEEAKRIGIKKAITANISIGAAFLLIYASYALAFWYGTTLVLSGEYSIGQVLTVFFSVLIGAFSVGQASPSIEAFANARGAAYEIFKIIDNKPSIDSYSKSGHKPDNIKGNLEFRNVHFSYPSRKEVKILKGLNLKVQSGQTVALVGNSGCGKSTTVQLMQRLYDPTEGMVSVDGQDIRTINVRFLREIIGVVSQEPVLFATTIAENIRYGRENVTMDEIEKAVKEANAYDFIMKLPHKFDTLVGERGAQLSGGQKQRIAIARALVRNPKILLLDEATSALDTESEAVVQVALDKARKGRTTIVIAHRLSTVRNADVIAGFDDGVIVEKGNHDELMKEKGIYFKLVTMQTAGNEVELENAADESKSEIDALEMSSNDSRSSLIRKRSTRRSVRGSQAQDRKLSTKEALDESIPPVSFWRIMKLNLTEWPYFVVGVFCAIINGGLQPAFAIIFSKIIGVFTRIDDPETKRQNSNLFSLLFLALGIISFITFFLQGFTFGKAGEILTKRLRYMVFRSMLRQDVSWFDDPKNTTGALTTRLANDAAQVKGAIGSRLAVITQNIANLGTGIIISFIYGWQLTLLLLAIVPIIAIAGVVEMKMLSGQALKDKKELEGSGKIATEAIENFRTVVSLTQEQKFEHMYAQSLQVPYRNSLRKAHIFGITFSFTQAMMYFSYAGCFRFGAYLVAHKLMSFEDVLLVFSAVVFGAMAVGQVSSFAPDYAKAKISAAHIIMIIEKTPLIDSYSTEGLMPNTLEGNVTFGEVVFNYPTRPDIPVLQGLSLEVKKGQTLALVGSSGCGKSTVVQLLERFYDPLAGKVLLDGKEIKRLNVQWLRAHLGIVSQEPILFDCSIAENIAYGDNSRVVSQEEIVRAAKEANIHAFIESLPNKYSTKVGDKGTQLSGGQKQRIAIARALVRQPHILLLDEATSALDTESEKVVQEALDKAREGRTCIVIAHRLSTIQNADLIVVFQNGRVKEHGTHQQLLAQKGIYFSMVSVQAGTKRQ
Excerpt: as §1

MRP2 = MRP2 (Homo sapiens, UniProt Q92887); test: In vitro drug transporter assay, MRP2; format: in vitro ADME
Chain of MRP2 (Q92887 whole entry, species assumed): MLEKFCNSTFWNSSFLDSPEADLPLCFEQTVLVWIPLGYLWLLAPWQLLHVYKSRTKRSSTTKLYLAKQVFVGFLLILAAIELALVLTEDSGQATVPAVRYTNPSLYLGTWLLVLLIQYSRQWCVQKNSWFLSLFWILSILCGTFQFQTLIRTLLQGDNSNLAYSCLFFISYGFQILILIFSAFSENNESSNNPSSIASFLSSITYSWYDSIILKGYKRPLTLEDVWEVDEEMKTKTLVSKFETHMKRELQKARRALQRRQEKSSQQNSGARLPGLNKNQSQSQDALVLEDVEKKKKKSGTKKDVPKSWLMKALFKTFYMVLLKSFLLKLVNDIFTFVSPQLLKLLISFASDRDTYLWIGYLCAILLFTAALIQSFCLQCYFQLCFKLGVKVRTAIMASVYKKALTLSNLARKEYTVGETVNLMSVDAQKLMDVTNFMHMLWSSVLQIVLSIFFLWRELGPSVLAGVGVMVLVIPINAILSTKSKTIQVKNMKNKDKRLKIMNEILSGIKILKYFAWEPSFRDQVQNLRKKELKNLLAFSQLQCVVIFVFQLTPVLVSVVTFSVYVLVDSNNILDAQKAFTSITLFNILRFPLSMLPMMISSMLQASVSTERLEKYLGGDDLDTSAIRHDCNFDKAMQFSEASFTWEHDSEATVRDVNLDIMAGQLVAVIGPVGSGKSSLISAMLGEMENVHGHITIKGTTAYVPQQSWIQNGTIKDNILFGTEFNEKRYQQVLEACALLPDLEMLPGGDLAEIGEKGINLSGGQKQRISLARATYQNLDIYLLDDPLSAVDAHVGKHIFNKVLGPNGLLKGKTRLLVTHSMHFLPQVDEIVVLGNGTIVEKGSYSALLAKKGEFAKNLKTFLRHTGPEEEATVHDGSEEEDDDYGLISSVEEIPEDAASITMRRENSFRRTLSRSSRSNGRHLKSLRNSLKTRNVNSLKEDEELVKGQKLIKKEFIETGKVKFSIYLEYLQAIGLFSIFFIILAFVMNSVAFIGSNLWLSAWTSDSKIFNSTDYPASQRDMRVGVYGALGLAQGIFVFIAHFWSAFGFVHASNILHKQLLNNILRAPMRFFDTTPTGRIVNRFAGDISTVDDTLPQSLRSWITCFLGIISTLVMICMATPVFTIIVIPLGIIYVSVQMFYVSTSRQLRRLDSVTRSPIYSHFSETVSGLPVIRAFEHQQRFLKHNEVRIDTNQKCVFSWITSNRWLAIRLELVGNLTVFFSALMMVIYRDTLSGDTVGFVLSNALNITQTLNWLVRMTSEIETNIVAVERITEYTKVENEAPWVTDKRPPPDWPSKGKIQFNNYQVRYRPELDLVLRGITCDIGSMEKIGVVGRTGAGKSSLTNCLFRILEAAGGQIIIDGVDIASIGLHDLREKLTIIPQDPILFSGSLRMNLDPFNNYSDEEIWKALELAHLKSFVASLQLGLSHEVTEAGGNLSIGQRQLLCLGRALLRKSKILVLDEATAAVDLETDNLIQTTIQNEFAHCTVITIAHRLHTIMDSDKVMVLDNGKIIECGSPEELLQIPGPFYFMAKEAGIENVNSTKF

BSEP = BSEP (Homo sapiens, UniProt O95342); test: In vitro drug transporter assay, BSEP; format: in vitro ADME; details: BSEP-mediated transport of TCA; read-out: Inhibitor of: BSEP, IC50
Chain of BSEP (O95342 whole entry, species assumed): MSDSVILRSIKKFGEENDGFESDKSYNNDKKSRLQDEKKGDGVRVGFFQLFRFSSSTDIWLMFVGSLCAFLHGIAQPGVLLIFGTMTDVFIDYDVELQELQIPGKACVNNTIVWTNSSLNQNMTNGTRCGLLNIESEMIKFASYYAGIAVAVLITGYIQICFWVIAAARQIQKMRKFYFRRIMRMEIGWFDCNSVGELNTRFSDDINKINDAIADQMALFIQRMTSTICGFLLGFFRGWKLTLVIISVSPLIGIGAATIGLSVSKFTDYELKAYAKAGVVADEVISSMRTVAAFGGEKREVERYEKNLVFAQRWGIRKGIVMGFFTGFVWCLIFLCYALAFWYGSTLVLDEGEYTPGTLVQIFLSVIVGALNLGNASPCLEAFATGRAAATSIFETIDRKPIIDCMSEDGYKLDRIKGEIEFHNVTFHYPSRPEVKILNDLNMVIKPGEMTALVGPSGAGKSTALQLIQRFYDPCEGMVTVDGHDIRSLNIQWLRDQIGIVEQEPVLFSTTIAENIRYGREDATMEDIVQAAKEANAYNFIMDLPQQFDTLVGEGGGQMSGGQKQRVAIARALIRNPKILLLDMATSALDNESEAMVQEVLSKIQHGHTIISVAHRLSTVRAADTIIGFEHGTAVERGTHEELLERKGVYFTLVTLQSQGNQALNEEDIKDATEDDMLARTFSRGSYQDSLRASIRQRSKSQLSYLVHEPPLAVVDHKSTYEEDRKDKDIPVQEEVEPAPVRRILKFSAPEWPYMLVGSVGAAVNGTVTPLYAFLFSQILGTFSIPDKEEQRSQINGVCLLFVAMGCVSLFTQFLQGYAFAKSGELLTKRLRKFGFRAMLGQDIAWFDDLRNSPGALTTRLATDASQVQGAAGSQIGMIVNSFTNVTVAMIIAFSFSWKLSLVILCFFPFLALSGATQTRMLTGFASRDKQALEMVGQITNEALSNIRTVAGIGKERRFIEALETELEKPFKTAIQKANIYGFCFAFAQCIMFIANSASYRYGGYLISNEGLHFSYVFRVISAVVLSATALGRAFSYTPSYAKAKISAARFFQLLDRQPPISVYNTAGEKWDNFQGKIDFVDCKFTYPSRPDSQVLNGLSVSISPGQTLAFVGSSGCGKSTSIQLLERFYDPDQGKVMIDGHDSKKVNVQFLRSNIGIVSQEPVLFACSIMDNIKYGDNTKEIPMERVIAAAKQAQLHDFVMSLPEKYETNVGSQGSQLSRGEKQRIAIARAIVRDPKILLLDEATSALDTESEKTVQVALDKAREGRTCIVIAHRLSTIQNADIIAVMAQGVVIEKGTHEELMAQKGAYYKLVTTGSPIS

CYP2A6 = molecular target: T2, CYP2A6 (Homo sapiens, UniProt P11509); test: In vitro Cytochrome P-450 enzyme assay, CYP2A6; format: in vitro ADME
T2 sequence (P11509 1-494): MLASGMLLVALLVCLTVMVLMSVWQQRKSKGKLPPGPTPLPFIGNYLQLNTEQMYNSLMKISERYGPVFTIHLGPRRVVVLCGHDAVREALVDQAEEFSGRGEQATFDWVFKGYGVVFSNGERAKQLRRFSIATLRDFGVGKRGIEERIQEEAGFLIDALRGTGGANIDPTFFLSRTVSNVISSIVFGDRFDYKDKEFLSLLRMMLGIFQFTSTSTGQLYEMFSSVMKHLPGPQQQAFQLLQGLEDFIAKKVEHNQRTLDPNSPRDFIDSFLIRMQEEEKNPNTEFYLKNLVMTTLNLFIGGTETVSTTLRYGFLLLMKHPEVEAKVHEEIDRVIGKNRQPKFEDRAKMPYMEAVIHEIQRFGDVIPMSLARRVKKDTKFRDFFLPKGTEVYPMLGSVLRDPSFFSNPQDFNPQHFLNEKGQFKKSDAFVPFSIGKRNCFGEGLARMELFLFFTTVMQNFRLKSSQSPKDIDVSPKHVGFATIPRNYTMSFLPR
Excerpt: as §1

OAT3 = molecular target: T3, OAT3 (Homo sapiens, UniProt Q8TCC7); test: In vitro drug transporter assay, OAT3; format: in vitro ADME; details: read-out: Inhibitor of: OAT3, IC50
T3 sequence (Q8TCC7 1-542): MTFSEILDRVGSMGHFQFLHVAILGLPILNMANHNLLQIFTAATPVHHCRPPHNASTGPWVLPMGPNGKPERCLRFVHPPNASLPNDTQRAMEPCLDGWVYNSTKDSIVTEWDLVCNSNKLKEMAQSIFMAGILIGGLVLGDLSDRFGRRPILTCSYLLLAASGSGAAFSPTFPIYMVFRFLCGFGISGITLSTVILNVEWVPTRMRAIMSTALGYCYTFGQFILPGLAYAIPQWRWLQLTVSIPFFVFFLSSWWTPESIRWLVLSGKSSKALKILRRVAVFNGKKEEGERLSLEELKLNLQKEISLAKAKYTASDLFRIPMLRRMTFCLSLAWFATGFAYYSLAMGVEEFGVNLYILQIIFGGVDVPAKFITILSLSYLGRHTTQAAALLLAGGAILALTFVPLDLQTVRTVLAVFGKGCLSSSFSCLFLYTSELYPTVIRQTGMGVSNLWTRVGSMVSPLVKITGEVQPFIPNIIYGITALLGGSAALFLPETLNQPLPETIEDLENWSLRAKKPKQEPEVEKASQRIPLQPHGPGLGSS

Structure (SMILES): CC(C)c1cc(Oc2c(Cl)cc(-n3nc(C#N)c(=O)[nH]c3=O)cc2Cl)n[nH]c1=O [MGL-3196, 2-(3,5-dichloro-4-((5-isopropyl-6-oxo-1,6-dihydropyridazin-3-yl)oxy)phenyl)-3,5-dioxo-2,3,4,5-tetrahydro-1,2,4-triazine-6-carbonitrile]
- Inhibitor of: OCT2 (OCT2): not an inhibitor
- fraction unbound (in vitro): < 0.01
- bioavailability ([1]; rat, plasma, po): 45 to 98%
- half-life ([1]; rat, plasma, rats, oral dosing, read-out: mean elimination half-life): 150 to 420 min
- time of maximum plasma concentrations ([1]; rats, oral dosing): 2 to 6 h
- bioavailability ([2]; dog, plasma, po): 11 to 135%
- half-life ([2]; dog, plasma, dogs, oral dosing, read-out: mean elimination half-life): 180 to 330 min
- time of maximum plasma concentrations ([2]; dogs, oral dosing): 1 to 8 h
- concentration at 4 h ([3]; dog, hepatic portal vein plasma, 100 mg/kg, Dog 1, read-out: Concentration in Hepatic Portal Vein Plasma): 18.8 µg/mL
- concentration at 4 h ([3]; dog, hepatic portal vein plasma, 100 mg/kg, Dog 2, read-out: Concentration in Hepatic Portal Vein Plasma): 86.6 µg/mL
- concentration at 4 h ([3]; dog, hepatic portal vein plasma, 100 mg/kg, Dog 3, read-out: Concentration in Hepatic Portal Vein Plasma): 98.6 µg/mL
- concentration at 4 h ([3]; dog, hepatic portal vein plasma, 100 mg/kg, Mean, read-out: Concentration in Hepatic Portal Vein Plasma): 68 µg/mL
- concentration at 4 h ([3]; dog, liver, 100 mg/kg, Dog 1, read-out: Concentration in Liver): 129000 ng/g
- concentration at 4 h ([3]; dog, liver, 100 mg/kg, Dog 2, read-out: Concentration in Liver): 319000 ng/g
- concentration at 4 h ([3]; dog, liver, 100 mg/kg, Dog 3, read-out: Concentration in Liver): 210000 ng/g
- concentration at 4 h ([3]; dog, liver, 100 mg/kg, Mean, read-out: Concentration in Liver): 219000 ng/g
- concentration at 4 h ([3]; dog, systemic plasma, 100 mg/kg, Dog 1, read-out: Concentration in Systemic Plasma): 16.7 µg/mL
- concentration at 4 h ([3]; dog, systemic plasma, 100 mg/kg, Dog 2, read-out: Concentration in Systemic Plasma): 81.5 µg/mL
- concentration at 4 h ([3]; dog, systemic plasma, 100 mg/kg, Dog 3, read-out: Concentration in Systemic Plasma): 115 µg/mL
- concentration at 4 h ([3]; dog, systemic plasma, 100 mg/kg, Mean, read-out: Concentration in Systemic Plasma): 71.1 µg/mL
- Concentration in Bile ([3]; Dog 1): 26,400,000 ng/mL
- Concentration in Bile ([3]; Dog 2): 10,400,000 ng/mL
- Concentration in Bile ([3]; Dog 3): 15,500,000 ng/mL
- Concentration in Bile ([3]; Mean): 17,400,000 ng/mL
- Kp at 4 h ([3]; bile versus plasma, oral, 100 mg/kg, dog, 4 h post-dose, read-out: concentration in bile higher than in plasma): ~250
- concentration in bile higher than in liver ([3]; dog, 4 h post-dose): ~80 ×
- Kp at 4 h ([3]; liver versus plasma, oral, dog, 4 h, 100 mg/kg, read-out: liver to plasma ratio): 3.1
- Kp at 24 h ([3]; liver versus plasma, oral, dog, 24 h, 100 mg/kg, read-out: liver to plasma ratio): 267
- Inhibitor of: CYP3A4 (CYP3A4): CYP3A4 (weak inhibitor)
- Inhibitor of: MDR1 (MDR1 (P-gp)): not an inhibitor
- Substrate for: MDR1 (P-gp) (MDR1 (P-gp)): weak substrate
- Inhibitor of: MRP2 (MRP2): not an inhibitor
- Substrate for: MRP2 (MRP2): not a substrate
- pIC50 (BSEP): 4.46
- Inhibitor of: CYP2A6 (CYP2A6): not an inhibitor
- pIC50 (OAT3): 5.35

Source: patent US11090308B2, “Methods of treating liver disorders or lipid disorders with a THR-beta agonist” (Madrigal Pharmaceuticals, Inc., priority 2016, dated 2021)
